Measurements from ChEMBL document CHEMBL1201862, “PubChem BioAssay data set” (2004).
Calls of active or inactive are those of the source.

What was measured:
[1] = Luminescence Cell-Based Dose Response HTS to Identify Activators of Luciferase Translation or Activity in H4 […] Cells. [Related pubchem assays: 1829 (Project Summary), 1814 (Primary HTS)]; type: functional
H4 = assay: Luminescence Cell-Based Dose Response HTS to Identify Activators of 5'UTR Stem-Loop Driven Prion Protein mRNA Translation in H4 Neuroglioblastoma Cells. [Related pubchem assays: 1829 (Project Summary), 1814 (Primary HTS)]; type: functional; conditions: Homo sapiens
[2] = HPDE-C7 pancreatic duct cell viability loss – fluorescence, HTS (AID 430); type: functional, cell-based; conditions: Homo sapiens
[3] = viability loss of HPDE-C7K cells – cell-based, fluorescence, HTS, primary screen (AID 431); type: functional; conditions: Homo sapiens
14-3-3 protein gamma = 14-3-3 protein gamma (Homo sapiens, UniProt P61981); assay: modulators of 14-3-3 gamma client binding – dose response (AID 711); type: functional
14-3-3 protein gamma, sequence (P61981 whole entry): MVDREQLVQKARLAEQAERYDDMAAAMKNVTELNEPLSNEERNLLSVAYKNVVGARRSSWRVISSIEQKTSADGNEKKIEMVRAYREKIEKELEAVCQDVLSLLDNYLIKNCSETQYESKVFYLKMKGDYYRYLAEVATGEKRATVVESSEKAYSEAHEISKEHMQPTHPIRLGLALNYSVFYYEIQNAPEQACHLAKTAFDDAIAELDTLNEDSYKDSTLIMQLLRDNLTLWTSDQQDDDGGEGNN

[4] = biological target: Neuropeptide Y receptor type 1 (Homo sapiens, UniProt P25929); type: functional;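 further: HEK293 cells with a CNG channel challenged with NPY then isoproterenol; potency as antagonist that reverses NPY suppression of cAMP signal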
Neuropeptide Y receptor type 1, sequence (P25929 whole entry): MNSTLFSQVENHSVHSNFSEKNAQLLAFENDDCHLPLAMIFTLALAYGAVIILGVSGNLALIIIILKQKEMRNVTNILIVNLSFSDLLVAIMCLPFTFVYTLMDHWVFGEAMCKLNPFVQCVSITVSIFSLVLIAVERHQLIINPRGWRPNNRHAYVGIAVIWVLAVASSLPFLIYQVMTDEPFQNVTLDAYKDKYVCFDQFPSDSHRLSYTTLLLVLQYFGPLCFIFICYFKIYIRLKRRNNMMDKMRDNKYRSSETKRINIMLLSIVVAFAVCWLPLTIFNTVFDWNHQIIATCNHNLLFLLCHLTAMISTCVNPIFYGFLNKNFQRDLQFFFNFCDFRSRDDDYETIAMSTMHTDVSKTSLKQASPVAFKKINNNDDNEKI

[5] = biological target: Neuropeptide Y receptor type 2 (Homo sapiens, UniProt P49146); type: functional, cell-based;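 further: HEK293 cells expressing the receptor and a CNG channel; stimulus was NPY near EC95 followed by isoproterenol to raise cAMP; antagonist potency measured as restoring cAMP signal that NPY suppresses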
Neuropeptide Y receptor type 2, sequence (P49146 whole entry): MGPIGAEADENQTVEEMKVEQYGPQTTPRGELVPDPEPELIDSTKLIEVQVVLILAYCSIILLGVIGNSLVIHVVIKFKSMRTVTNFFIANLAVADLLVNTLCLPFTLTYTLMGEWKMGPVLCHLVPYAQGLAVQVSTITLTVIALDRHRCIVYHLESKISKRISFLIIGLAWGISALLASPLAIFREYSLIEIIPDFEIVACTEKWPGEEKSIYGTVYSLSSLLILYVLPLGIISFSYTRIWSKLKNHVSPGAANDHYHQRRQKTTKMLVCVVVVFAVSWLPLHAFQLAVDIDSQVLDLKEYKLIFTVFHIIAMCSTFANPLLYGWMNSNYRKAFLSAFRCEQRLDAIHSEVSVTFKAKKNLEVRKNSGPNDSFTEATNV

[6] = Luminescent dose response cell-based high throughput screening assay for inhibitors of the Janus kinase 2 mutant JAK2V617F. [Related pubchem assays: 1446 (Primary screen.), 1521 (Confirmation assay.), 1486 (Counter screen.)]; type: functional
Vero = assay: cells; type: functional; conditions: Chlorocebus sabaeus
Paired box protein Pax-8 = Paired box protein Pax-8 (Homo sapiens, UniProt Q06710); assay: PAX8 transcriptional activity inhibition in RMG-I – RMG-I cells, luciferase, cherry-pick, dose response (AID 687027); type: functional, cell-based;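 further: luciferase reporter driven by Pax8 target thyroperoxidase promoter measured by SteadyGlo luminescence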
Paired box protein Pax-8, sequence (Q06710 whole entry): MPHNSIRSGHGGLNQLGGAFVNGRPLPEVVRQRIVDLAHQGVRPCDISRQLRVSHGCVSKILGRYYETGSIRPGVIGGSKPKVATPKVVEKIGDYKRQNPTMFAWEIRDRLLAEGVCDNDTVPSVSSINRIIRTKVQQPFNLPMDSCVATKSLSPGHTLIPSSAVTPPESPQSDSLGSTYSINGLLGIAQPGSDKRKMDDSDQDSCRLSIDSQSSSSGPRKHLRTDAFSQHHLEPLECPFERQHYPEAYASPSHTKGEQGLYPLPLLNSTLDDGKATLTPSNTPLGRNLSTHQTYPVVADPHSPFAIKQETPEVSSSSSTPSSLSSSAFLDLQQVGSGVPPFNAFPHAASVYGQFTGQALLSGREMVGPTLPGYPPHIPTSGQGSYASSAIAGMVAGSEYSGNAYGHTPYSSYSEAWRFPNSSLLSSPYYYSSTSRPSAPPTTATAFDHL

Streptokinase A = biological target: T1, Streptokinase A (Streptococcus pyogenes serotype M1, UniProt P10520); assay: Absorbance Microorganism-Based Dose Response Follow up to Identify Inhibitors of Streptokinase Expression. [Related pubchem assays: 1677 (Project Summary), 1915, 1914, 1902 (Retest at Dose), 1900 (Counter Screen), 1662 (Primary HTS)]; type: functional, Streptococcus pyogenes M1 GAS
T1 sequence (P10520 whole entry): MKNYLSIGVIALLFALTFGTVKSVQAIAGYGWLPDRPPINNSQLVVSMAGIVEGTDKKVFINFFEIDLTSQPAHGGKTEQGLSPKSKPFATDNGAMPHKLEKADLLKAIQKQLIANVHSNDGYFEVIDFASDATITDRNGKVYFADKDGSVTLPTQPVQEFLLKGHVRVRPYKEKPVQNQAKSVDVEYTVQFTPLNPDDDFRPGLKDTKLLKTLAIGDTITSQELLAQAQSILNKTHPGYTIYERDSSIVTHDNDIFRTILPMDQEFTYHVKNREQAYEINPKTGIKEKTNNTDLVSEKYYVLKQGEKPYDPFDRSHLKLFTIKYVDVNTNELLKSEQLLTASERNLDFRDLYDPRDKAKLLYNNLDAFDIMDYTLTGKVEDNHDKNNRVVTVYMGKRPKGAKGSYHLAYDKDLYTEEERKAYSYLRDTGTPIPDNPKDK

Streptococcus = assay: GAS bacterial viability reduction – luminescence, BacTiter-Glo, strain UMAA2166, counter-screen for streptokinase expression inhibitor project, dose response (AID 2477); type: functional, organism-based
Melanocortin receptor 4 = Melanocortin receptor 4 (Homo sapiens, UniProt P32245); assay: inhibitors of MC4R cAMP signaling – cell-based, TR-FRET, biased antagonists, dose response (AID 602298); type: functional;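 further: antagonist potency against agonist-stimulated cAMP production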
Melanocortin receptor 4, sequence (P32245 whole entry): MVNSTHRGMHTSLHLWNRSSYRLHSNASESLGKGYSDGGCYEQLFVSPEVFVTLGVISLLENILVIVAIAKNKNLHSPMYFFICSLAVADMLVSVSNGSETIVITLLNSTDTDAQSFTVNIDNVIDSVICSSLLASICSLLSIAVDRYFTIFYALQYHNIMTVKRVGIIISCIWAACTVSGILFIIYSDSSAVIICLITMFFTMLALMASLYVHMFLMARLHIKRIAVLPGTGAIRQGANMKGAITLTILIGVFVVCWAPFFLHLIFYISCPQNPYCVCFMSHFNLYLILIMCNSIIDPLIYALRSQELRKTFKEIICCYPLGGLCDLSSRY

[7] = cAMP pathway inhibition in counterscreen cell line – TR-FRET cAMP detection, counter-screen for MC4R biased antagonist project, dose response (AID 602305); type: functional, cell-based;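 further: U2OS cells stimulated with forskolin near its EC80 as the cAMP inducer; potency is for inhibition of forskolin-stimulated cAMP signaling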
[8] = biological target: G-protein coupled receptor 55 (Homo sapiens, UniProt Q9Y2T6); assay: inhibition of LPI-stimulated GPR55 beta-arrestin translocation – imaging, U2OS, beta-arrestin-GFP, LPI agonist, primary screen (AID 2013); type: functional;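 further: antagonist potency measured as reduced agonist-driven arrestin aggregation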
G-protein coupled receptor 55, sequence (Q9Y2T6 whole entry): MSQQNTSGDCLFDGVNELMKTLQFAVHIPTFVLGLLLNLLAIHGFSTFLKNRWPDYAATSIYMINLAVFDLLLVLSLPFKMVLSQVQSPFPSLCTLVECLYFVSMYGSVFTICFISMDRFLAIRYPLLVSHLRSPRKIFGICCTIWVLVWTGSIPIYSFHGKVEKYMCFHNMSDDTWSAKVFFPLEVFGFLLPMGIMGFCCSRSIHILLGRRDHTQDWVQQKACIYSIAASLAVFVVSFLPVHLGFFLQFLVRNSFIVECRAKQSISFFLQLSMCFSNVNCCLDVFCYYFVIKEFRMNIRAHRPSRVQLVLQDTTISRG

[9] = microbe, parasite or virus in culture; type: functional; conditions: Mycobacterium tuberculosis
[10] = Luminescence-based dose response cell-based high throughput screening assay for cytotoxic compounds using the IEC-6 intestinal epithelial cell line. [Related pubchem assays: 1858 (Summary AID.), 1825 (Counterscreen.), 1907 (Confirmation screen.)]; type: functional
[11] = THP-1 cell cytotoxicity, dose response, cytotoxicity control for non-replicating M. tuberculosis project (AID 489025); type: functional
[12] = HepG2 cell cytotoxicity, dose response, cytotoxicity control for non-replicating M. tuberculosis project (AID 489018); type: functional; conditions: Mycobacterium tuberculosis
[13] = Vero E6 cell cytotoxicity, dose response, cytotoxicity control for non-replicating M. tuberculosis project, secondary assay (AID 492998); type: functional, VeroE6; conditions: Vero C1008
cells = type: functional
INS1 = assay: INS-1E survival protection against cytokine death – cell-based, luminescence, retest, dose response (AID 449756); type: functional; conditions: Rattus norvegicus;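 further: cell death triggered by IL-1 beta plus TNF-alpha plus IFN-gamma mixture; protective hits raise ATP signal compared with cytokine alone wells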
[14] = Fluorescence-based cell-based high throughput dose response assay for inhibitors of the interaction of nucleotide-binding oligomerization domain containing 2 (NOD2) and the receptor-interacting serine-threonine kinase 2 (RIPK2).; type: functional; conditions: Homo sapiens
[15] = biological target: Photoreceptor-specific nuclear receptor (Homo sapiens, UniProt Q9Y5X4); type: functional, cell-based;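 further: CHO-S cells with Gal4-NCOR and VP16-NR2E3 two-hybrid luciferase reporter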
Photoreceptor-specific nuclear receptor, sequence (Q9Y5X4 whole entry, the tested form may be a part): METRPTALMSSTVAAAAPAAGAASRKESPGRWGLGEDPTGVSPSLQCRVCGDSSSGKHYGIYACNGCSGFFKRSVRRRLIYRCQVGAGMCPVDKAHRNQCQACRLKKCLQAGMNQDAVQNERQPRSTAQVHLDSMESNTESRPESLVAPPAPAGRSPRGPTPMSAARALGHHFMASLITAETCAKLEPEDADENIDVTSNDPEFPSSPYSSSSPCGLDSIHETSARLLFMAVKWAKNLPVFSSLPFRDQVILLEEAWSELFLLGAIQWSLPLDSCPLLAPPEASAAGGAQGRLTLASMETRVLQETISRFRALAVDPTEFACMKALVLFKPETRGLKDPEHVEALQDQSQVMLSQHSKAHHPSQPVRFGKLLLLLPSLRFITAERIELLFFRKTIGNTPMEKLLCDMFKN

[16] = viability loss in HeLa cells – cytotoxicity control for MgcRacGAP inhibitor project, dose response (AID 624300); type: functional
[17] = biological target: T2, Rac GTPase-activating protein 1 (Homo sapiens, UniProt Q9H0H5); assay: blockers of MgcRacGAP-driven Rac1 GTP hydrolysis – biochemical, ADP Hunter fluorescence, primary and confirmatory, confirmation (AID 624330); type: functional
T2 sequence (Q9H0H5 whole entry): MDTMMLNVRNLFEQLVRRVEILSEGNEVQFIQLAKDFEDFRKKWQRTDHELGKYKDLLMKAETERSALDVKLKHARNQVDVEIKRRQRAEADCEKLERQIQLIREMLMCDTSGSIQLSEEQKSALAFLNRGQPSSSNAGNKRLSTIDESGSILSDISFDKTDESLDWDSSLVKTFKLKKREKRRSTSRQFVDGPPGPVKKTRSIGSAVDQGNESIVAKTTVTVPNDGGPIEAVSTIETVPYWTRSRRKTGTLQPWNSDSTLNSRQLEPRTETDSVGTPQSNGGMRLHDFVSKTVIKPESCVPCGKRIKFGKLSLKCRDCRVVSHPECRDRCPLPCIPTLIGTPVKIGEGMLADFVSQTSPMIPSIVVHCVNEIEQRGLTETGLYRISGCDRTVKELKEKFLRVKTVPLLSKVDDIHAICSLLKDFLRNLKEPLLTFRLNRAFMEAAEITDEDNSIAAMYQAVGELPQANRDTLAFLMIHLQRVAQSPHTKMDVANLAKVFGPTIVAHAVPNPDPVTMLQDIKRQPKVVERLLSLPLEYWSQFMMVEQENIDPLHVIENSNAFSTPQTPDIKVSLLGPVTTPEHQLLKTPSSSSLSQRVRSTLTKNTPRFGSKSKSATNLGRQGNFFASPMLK

[18] = biological target: Protein-tyrosine kinase 2-beta (Homo sapiens, UniProt Q14289);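 further: potency of inhibitors of PYK2 kinase phosphorylation of poly-GT substrate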
Protein-tyrosine kinase 2-beta, sequence (Q14289 whole entry): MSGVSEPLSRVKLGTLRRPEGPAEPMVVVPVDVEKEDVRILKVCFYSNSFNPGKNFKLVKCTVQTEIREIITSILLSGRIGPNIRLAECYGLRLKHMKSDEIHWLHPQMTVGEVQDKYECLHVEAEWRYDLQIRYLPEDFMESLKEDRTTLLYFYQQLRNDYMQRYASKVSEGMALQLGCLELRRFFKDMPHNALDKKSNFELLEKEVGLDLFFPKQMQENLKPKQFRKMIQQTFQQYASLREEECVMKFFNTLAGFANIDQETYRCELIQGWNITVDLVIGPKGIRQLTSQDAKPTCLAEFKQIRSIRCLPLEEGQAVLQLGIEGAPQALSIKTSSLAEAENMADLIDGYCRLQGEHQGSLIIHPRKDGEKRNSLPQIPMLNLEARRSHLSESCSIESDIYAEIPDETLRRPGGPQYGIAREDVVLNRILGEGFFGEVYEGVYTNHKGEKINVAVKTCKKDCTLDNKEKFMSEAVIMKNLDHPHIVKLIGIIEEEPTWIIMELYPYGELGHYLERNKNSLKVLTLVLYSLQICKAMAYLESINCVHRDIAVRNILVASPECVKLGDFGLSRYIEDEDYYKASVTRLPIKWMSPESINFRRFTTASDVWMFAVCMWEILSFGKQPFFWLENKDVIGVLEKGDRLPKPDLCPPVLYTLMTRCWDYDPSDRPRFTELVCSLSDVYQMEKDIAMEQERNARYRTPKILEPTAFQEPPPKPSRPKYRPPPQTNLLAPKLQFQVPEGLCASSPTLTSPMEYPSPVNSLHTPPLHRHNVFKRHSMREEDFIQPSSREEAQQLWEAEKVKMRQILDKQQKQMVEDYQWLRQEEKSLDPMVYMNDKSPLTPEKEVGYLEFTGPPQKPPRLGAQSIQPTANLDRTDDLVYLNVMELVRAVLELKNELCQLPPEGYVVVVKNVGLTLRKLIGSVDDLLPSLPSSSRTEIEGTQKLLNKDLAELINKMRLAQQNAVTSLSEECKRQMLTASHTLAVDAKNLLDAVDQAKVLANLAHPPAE

[19] = biological target: Mitogen-activated protein kinase 10 (Homo sapiens, UniProt P53779); assay: Dose response biochemical screening assay for inhibitors of c-Jun N-Terminal Kinase 3 (JNK3). [Related pubchem assays: 746 ]
Mitogen-activated protein kinase 10, sequence (P53779 whole entry): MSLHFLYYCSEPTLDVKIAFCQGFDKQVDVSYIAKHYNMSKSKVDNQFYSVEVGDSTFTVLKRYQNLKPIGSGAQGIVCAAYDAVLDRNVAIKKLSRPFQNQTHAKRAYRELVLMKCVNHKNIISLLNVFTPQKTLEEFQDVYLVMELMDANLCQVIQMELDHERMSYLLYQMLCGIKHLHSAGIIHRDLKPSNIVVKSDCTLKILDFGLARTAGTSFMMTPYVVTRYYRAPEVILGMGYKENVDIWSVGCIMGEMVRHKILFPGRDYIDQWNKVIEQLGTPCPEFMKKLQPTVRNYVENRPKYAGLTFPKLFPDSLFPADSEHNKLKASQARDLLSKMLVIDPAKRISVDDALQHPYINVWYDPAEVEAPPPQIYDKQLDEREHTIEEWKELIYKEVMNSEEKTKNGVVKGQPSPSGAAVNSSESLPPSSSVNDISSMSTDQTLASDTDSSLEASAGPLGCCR

[20] = biological target: T3, Short transient receptor potential channel 4 (Mus musculus, UniProt Q9QUQ5); assay: block of DAMGO-driven TRPC4 calcium entry – cell-based, HEK293 TRPC4/mu-opioid, Fluo-4 calcium, dose response (AID 434942); type: functional;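 further: potency of inhibitors blocking the TRPC4 calcium response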
T3 sequence (Q9QUQ5 whole entry): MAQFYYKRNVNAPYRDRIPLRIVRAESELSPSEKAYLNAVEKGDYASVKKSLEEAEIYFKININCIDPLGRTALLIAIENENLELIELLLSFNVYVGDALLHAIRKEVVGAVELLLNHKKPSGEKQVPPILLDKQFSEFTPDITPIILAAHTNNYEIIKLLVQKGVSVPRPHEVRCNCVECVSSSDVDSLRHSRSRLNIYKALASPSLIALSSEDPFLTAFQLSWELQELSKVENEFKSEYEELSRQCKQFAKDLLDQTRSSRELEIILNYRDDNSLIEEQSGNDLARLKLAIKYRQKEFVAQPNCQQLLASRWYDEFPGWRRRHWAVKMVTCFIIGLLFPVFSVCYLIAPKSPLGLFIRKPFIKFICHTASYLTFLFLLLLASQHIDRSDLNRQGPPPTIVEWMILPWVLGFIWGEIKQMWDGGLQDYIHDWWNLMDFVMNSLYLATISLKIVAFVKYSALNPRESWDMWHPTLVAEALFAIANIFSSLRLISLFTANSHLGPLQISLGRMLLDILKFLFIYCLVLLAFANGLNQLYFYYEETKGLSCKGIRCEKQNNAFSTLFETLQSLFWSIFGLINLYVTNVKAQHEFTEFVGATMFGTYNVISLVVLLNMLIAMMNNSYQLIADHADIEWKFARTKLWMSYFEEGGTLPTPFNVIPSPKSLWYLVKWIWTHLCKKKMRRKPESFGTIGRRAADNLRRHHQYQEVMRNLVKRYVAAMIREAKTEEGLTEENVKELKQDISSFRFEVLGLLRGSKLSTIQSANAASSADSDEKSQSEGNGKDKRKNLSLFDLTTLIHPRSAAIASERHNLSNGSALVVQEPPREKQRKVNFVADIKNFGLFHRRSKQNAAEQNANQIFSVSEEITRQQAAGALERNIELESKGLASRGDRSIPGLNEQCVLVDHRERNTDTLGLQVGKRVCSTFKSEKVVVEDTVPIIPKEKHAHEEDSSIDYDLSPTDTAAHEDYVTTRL

HEK293 = assay: EBV LMP1 TES2 canonical NF-kB signalling blockers – cell-based, HEK293, luciferase, cherry-pick, dose response (AID 588343); type: functional; conditions: Homo sapiens
[21] = biological target: Dual specificity tyrosine-phosphorylation-regulated kinase 1A (Rattus norvegicus, UniProt Q63470); type: biochemical, Homo sapiens

For `Cc1csc(NC(=O)CSc2nsc(SCC(=O)Nc3nc(C)cs3)c2C#N)n1`, the EC50 [1] was 1.86 µM (active), the EC50 (H4) was > 120 µM (not active) and the EC50 [2] was 12.4 µM (active). For the same molecule, the EC50 [3] was 11 µM (active) and the IC50 (14-3-3 protein gamma) was > 50 µM (not active).

In the case of `Cc1cccc(NC(S)=NN=C(S)NCc2ccccc2)c1`, the IC50 [4] is reported as > 35 µM (not active) and the IC50 [5] is reported as > 35 µM (not active).

For `Cc1nc2ccccc2c(O)c1C(=O)/C=C/c1ccccc1`, the IC50 [6] was 1.71 µM (active), the CC50 (Vero) was 7.78 µM (active) and the AC50 (Paired box protein Pax-8) was 6.93 µM (active).

For `Cc1ccc(Sc2ccc(NC(=O)c3ccc(F)cc3)cc2C#N)cc1`, the EC50 (Streptokinase A) was > 500 µM (not active), the EC50 (Streptococcus) was > 500 µM (not active) and the IC50 (Melanocortin receptor 4) was > 64.6 µM (inactive). For the same molecule, the IC50 [7] was > 64.6 µM (inactive).

In the case of `CN1C2CCC1/C(=C/c1ccccn1)C(=O)/C2=C\c1ccccn1`, the IC50 [8] is reported as 3.25 µM (active), the CC50 [9] is reported as 1.69 µM (active) and the IC50 [10] is reported as 1.76 µM (active). For the same molecule, the CC50 [11] was 894 nM (active), the CC50 [12] was 1.49 µM (active) and the CC50 [13] was 1.06 µM (active). For the same molecule, the IC50 (cells) was 7.83 µM (active), the AC50 (INS1) was 1.59 µM (active) and the IC50 [14] was 2.58 µM (active). For the same molecule, the IC50 [15] was 1.73 µM (active), the CC50 [16] was 12.5 µM (active) and the IC50 [17] was 62.5 µM (active). The AC50 (Paired box protein Pax-8) was 0.852 µM (active).

With `COC(=O)c1cccc2c1-c1ccccc1/C2=N/O` the IC50 [18] was 6.71 µM (active), the IC50 [19] was 8.81 µM (active) and the EC50 [20] was 2.99 µM (active). For the same molecule, the AC50 (HEK293) was 28 µM (active) and the AC50 [21] was 434 nM (active).
